Assay results taken from PubChem BioAssay (NCI).
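Cultured in 96-well plates, cells were exposed to test compound for 48 hours across five concentrations. TGI is the concentration that stops growth completely.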

These compounds were tested on NCI-H226 lung (assay: inhibition of tumour cell growth, NCI panel, 48 h).
Compound `Nc1cnc(Nc2cccc3ccccc23)o1` has a TGI of over 10 µM. Compound `COC(=O)C1=CC(=O)OC1(OO)c1ccc(Br)cc1` (stereo unspecified) has a TGI of over 100 µM. Work on `C[Si](C)(C)CNC(=O)OCc1ccccc1` yielded a TGI of over 100 µM. For `CC1(C)COC(c2ccccc2-c2ccccc2)=N1`, the TGI was over 100 µM.

These compounds were tested on RPMI-8226 leukemia (assay: inhibition of tumour cell growth, NCI panel, 48 h).
`C[Si](C)(C)CNC(=O)OCc1ccccc1` showed a TGI of over 100 µM. With `CC1(C)COC(c2ccccc2-c2ccccc2)=N1` the TGI was over 100 µM.

These compounds were tested on SK-OV-3 ovarian (assay: inhibition of tumour cell growth, NCI panel, 48 h).
Compound `Nc1cnc(Nc2cccc3ccccc23)o1` has a TGI of over 10 µM. Work on `COC(=O)C1=CC(=O)OC1(OO)c1ccc(Br)cc1` (stereo unspecified) yielded a TGI of over 100 µM. `C[Si](C)(C)CNC(=O)OCc1ccccc1` was tested, and the TGI was over 100 µM. Work on `COc1cccc(-c2nc(-c3cnccn3)n(C3OC(CO)C(O)C3O)n2)c1` (stereo unspecified) yielded a TGI of over 100 µM. With `CC1(C)COC(c2ccccc2-c2ccccc2)=N1` the TGI was over 100 µM.

The compounds below were run on COLO 205 colon (assay: inhibition of tumour cell growth, NCI panel, 48 h).
Compound `Nc1cnc(Nc2cccc3ccccc23)o1` has a TGI of over 10 µM. With `COC(=O)C1=CC(=O)OC1(OO)c1ccc(Br)cc1` (stereo unspecified) the TGI was over 100 µM. `C[Si](C)(C)CNC(=O)OCc1ccccc1` was tested, and the TGI was over 100 µM. In the case of `COc1cccc(-c2nc(-c3cnccn3)n(C3OC(CO)C(O)C3O)n2)c1` (stereo unspecified), the TGI is reported as over 100 µM. `CC1(C)COC(c2ccccc2-c2ccccc2)=N1` showed a TGI of over 100 µM.

These compounds were tested on SNB-19 CNS (assay: inhibition of tumour cell growth, NCI panel, 48 h).
`Nc1cnc(Nc2cccc3ccccc23)o1` gave a TGI of over 10 µM. `COC(=O)C1=CC(=O)OC1(OO)c1ccc(Br)cc1` (stereo unspecified) gave a TGI of over 100 µM. With `C[Si](C)(C)CNC(=O)OCc1ccccc1` the TGI was over 100 µM. Compound `COc1cccc(-c2nc(-c3cnccn3)n(C3OC(CO)C(O)C3O)n2)c1` (stereo unspecified) has a TGI of over 100 µM. `CC1(C)COC(c2ccccc2-c2ccccc2)=N1` gave a TGI of over 100 µM.

These compounds were tested on SK-MEL-5 melanoma (assay: inhibition of tumour cell growth, NCI panel, 48 h).
`Nc1cnc(Nc2cccc3ccccc23)o1` gave a TGI of over 10 µM. `COC(=O)C1=CC(=O)OC1(OO)c1ccc(Br)cc1` (stereo unspecified) gave a TGI of over 100 µM. In the case of `C[Si](C)(C)CNC(=O)OCc1ccccc1`, the TGI is reported as over 100 µM. `COc1cccc(-c2nc(-c3cnccn3)n(C3OC(CO)C(O)C3O)n2)c1` (stereo unspecified) gave a TGI of over 100 µM.

Each compound was assayed on MDA-N (assay: inhibition of tumour cell growth, NCI panel, 48 h).
For `Nc1cnc(Nc2cccc3ccccc23)o1`, the TGI was over 10 µM. Work on `COC(=O)C1=CC(=O)OC1(OO)c1ccc(Br)cc1` (stereo unspecified) yielded a TGI of over 100 µM. `C[Si](C)(C)CNC(=O)OCc1ccccc1` gave a TGI of over 100 µM. `COc1cccc(-c2nc(-c3cnccn3)n(C3OC(CO)C(O)C3O)n2)c1` (stereo unspecified) was tested, and the TGI was over 100 µM. Compound `CC1(C)COC(c2ccccc2-c2ccccc2)=N1` has a TGI of over 100 µM.

The compounds below were run on BT-549 breast (assay: inhibition of tumour cell growth, NCI panel, 48 h).
`COC(=O)C1=CC(=O)OC1(OO)c1ccc(Br)cc1` (stereo unspecified) was tested, and the TGI was over 100 µM. With `C[Si](C)(C)CNC(=O)OCc1ccccc1` the TGI was over 100 µM. Work on `COc1cccc(-c2nc(-c3cnccn3)n(C3OC(CO)C(O)C3O)n2)c1` (stereo unspecified) yielded a TGI of over 100 µM. `CC1(C)COC(c2ccccc2-c2ccccc2)=N1` showed a TGI of over 100 µM.

What follows are compounds tested on HL-60(TB) leukemia (assay: inhibition of tumour cell growth, NCI panel, 48 h).
Work on `Nc1cnc(Nc2cccc3ccccc23)o1` yielded a TGI of over 10 µM. For `COC(=O)C1=CC(=O)OC1(OO)c1ccc(Br)cc1` (stereo unspecified), the TGI was over 100 µM. `C[Si](C)(C)CNC(=O)OCc1ccccc1` gave a TGI of over 100 µM. `COc1cccc(-c2nc(-c3cnccn3)n(C3OC(CO)C(O)C3O)n2)c1` (stereo unspecified) gave a TGI of over 100 µM. `CC1(C)COC(c2ccccc2-c2ccccc2)=N1` was tested, and the TGI was over 100 µM.

These compounds were tested on SF-268 CNS (assay: inhibition of tumour cell growth, NCI panel, 48 h).
`Nc1cnc(Nc2cccc3ccccc23)o1` showed a TGI of over 10 µM. In the case of `C[Si](C)(C)CNC(=O)OCc1ccccc1`, the TGI is reported as over 100 µM. With `COc1cccc(-c2nc(-c3cnccn3)n(C3OC(CO)C(O)C3O)n2)c1` (stereo unspecified) the TGI was over 100 µM. Work on `CC1(C)COC(c2ccccc2-c2ccccc2)=N1` yielded a TGI of over 100 µM.

Each compound was assayed on MDA-MB-435 (assay: inhibition of tumour cell growth, NCI panel, 48 h).
With `Nc1cnc(Nc2cccc3ccccc23)o1` the TGI was over 10 µM. `COC(=O)C1=CC(=O)OC1(OO)c1ccc(Br)cc1` (stereo unspecified) showed a TGI of over 100 µM. `C[Si](C)(C)CNC(=O)OCc1ccccc1` showed a TGI of over 100 µM. `COc1cccc(-c2nc(-c3cnccn3)n(C3OC(CO)C(O)C3O)n2)c1` (stereo unspecified) was tested, and the TGI was over 100 µM. In the case of `CC1(C)COC(c2ccccc2-c2ccccc2)=N1`, the TGI is reported as over 100 µM.

Each compound was assayed on CAKI-1 renal (assay: inhibition of tumour cell growth, NCI panel, 48 h).
Work on `Nc1cnc(Nc2cccc3ccccc23)o1` yielded a TGI of over 10 µM. With `COC(=O)C1=CC(=O)OC1(OO)c1ccc(Br)cc1` (stereo unspecified) the TGI was over 100 µM. `C[Si](C)(C)CNC(=O)OCc1ccccc1` gave a TGI of over 100 µM. `CC1(C)COC(c2ccccc2-c2ccccc2)=N1` gave a TGI of over 100 µM.

What follows are compounds tested on 786-0 renal (assay: inhibition of tumour cell growth, NCI panel, 48 h).
Compound `Nc1cnc(Nc2cccc3ccccc23)o1` has a TGI of over 10 µM. With `COC(=O)C1=CC(=O)OC1(OO)c1ccc(Br)cc1` (stereo unspecified) the TGI was over 100 µM. `C[Si](C)(C)CNC(=O)OCc1ccccc1` was tested, and the TGI was over 100 µM. Work on `COc1cccc(-c2nc(-c3cnccn3)n(C3OC(CO)C(O)C3O)n2)c1` (stereo unspecified) yielded a TGI of over 100 µM. For `CC1(C)COC(c2ccccc2-c2ccccc2)=N1`, the TGI was over 100 µM.

The compounds below were run on HS 578T breast (assay: inhibition of tumour cell growth, NCI panel, 48 h).
`Nc1cnc(Nc2cccc3ccccc23)o1` was tested, and the TGI was over 10 µM.

Each compound was assayed on LOX IMVI melanoma (assay: inhibition of tumour cell growth, NCI panel, 48 h).
`Nc1cnc(Nc2cccc3ccccc23)o1` gave a TGI of over 10 µM. In the case of `COC(=O)C1=CC(=O)OC1(OO)c1ccc(Br)cc1` (stereo unspecified), the TGI is reported as over 100 µM. `C[Si](C)(C)CNC(=O)OCc1ccccc1` was tested, and the TGI was over 100 µM. For `COc1cccc(-c2nc(-c3cnccn3)n(C3OC(CO)C(O)C3O)n2)c1` (stereo unspecified), the TGI was over 100 µM.

What follows are compounds tested on NCI-H460 lung (assay: inhibition of tumour cell growth, NCI panel, 48 h).
`Nc1cnc(Nc2cccc3ccccc23)o1` gave a TGI of over 10 µM. Work on `COC(=O)C1=CC(=O)OC1(OO)c1ccc(Br)cc1` (stereo unspecified) yielded a TGI of over 100 µM. For `C[Si](C)(C)CNC(=O)OCc1ccccc1`, the TGI was over 100 µM. Compound `COc1cccc(-c2nc(-c3cnccn3)n(C3OC(CO)C(O)C3O)n2)c1` (stereo unspecified) has a TGI of over 100 µM.
